# Measurements taken from US20250170140A1, “PHARMACEUTICAL COMPOSITION FOR PREVENTING OR TREATING CANCER COMPRISING CARNITINE ACYLCARNITINE CARRIER INHIBITOR AND PEROXISOMAL BETA OXIDATION INHIBITOR” (priority 2021, published 2025).
# Tests used:
# Type in all cases: cell-based
# A549 cells = assay: SRB assay, lung cancer cells A549
# Procedure: (§1) As a comparison, omeprazole (KN510) and trimetazidine (KN713), a 3-ketoacyl CoA thiolase inhibitor, were co-treated. […] After cell inoculation, 96-well cell culture plates were incubated for 24 hours before the addition of experimental drugs. […] The cells were then incubated in a CO2 incubator for 48 hours, after which the assay was terminated by the addition of cold TCA. Cells were fixed in situ by gently adding 50 μl of cold 50% (w/v) TCA (final concentration: 10% TCA) and incubated at 4° C. for 60 min. The supernatant was discarded, and the plate was washed five times with distilled water and air dried. Sulforhodamine B (SRB) solution (100 μl) of 0.4% (w/v) in 1% acetic acid was added to each well, and the plate was left at room temperature for 10 min. After staining, unbound dye was removed by washing five times with 1% acetic acid, and the plate was air-dried. The bound dye was then solubilized with 10 mM trizma base, and the absorbance was recorded at 515 nm using an automated plate reader. […] The predicted synergistic activity of a combination of the present invention can be calculated using the Colby Equation in Equation 1 (S.R. Colby, Weeds, 1967, pp. 15, 20-22): In the present invention, the actual measure of anti-cancer activity of the combination treatment was the inhibition rate of cancer cell growth (%), and the predicted value (E) of the combination treatment was measured by substituting it into the above Colby Equation.
# MKN-28 cells = assay: SRB assay, stomach cancer cell line MKN-28
# Procedure: as §1
# SK-HEP-1 cells = assay: SRB assay, liver cancer cell line SK-HEP-1
# Procedure: as §1
# [1] = Homo sapiens, KN510 100 μM, read-out: Inhibition rate of cancer cell growth (%) (Actual value)
# [2] = Homo sapiens, KN510 200 μM, read-out: Inhibition rate of cancer cell growth (%) (Actual value)
# [3] = Homo sapiens, KN714 5 μM, read-out: Inhibition rate of cancer cell growth (%) (Actual value)
# [4] = Homo sapiens, KN714 10 μM, read-out: Inhibition rate of cancer cell growth (%) (Actual value)
structure (smiles),measurement,setting,value
"COc1ccc2[nH]c([S+]([O-])Cc3ncc(C)c(OC)c3C)nc2c1 (stereo not drawn) [KN510, omeprazole]",inhibition at 100 µM,A549 cells; [1],44.6%
same,inhibition at 200 µM,A549 cells; [2],69.7%
same,Cancer cell growth rate Average (%),A549 cells; KN510 100 μM,55.44%
same,Cancer cell growth rate Average (%),A549 cells; KN510 200 μM,30.29%
same,inhibition at 100 µM,MKN-28 cells; [1],50.2%
same,inhibition at 200 µM,MKN-28 cells; [2],74.8%
same,Cancer cell growth rate Average (%),MKN-28 cells; KN510 100 μM,49.80%
same,Cancer cell growth rate Average (%),MKN-28 cells; KN510 200 μM,25.20%
same,inhibition at 100 µM,"SK-HEP-1 cells; Homo sapiens, SK-HEP1, KN510 100 μM, read-out: Inhibition rate of cancer cell growth (%) (Actual value)",46.7%
same,inhibition at 200 µM,"SK-HEP-1 cells; Homo sapiens, SK-HEP1, KN510 200 μM, read-out: Inhibition rate of cancer cell growth (%) (Actual value)",62.8%
same,Cancer cell growth rate Average (%),SK-HEP-1 cells; KN510 100 μM,53.28%
same,Cancer cell growth rate Average (%),SK-HEP-1 cells; KN510 200 μM,37.19%
"CSc1ccc2c(c1)N(CCC1CCCCN1C)c1ccccc1S2 (stereo not drawn) [KN714, 10-[2-(1-methyl-2-piperidyl)ethyl]-2-(methylthio)phenothiazine]",inhibition at 5 µM,A549 cells; [3],2.15%
same,inhibition at 10 µM,A549 cells; [4],35.4%
same,Cancer cell growth rate Average (%),A549 cells; KN714 5 μM,97.85%
same,Cancer cell growth rate Average (%),A549 cells; KN714 10 μM,64.57%
same,inhibition at 5 µM,MKN-28 cells; [3],8.19%
same,inhibition at 10 µM,MKN-28 cells; [4],64%
same,Cancer cell growth rate Average (%),MKN-28 cells; KN714 5 μM,91.81%
same,Cancer cell growth rate Average (%),MKN-28 cells; KN714 10 μM,36.04%
same,inhibition at 5 µM,"SK-HEP-1 cells; Homo sapiens, SK-HEP1, KN714 5 μM, read-out: Inhibition rate of cancer cell growth (%) (Actual value)",17.6%
same,inhibition at 10 µM,"SK-HEP-1 cells; Homo sapiens, SK-HEP1, KN714 10 μM, read-out: Inhibition rate of cancer cell growth (%) (Actual value)",40.1%
same,Cancer cell growth rate Average (%),SK-HEP-1 cells; KN714 5 μM,82.37%
same,Cancer cell growth rate Average (%),SK-HEP-1 cells; KN714 10 μM,59.94%
